One series relates to G-protein Gi1α. The following applies: literature (Galbiati et al., Biochem J 313:717-720); cited from earlier work.
The conditions of series [1]: room temperature; cited from earlier work.
Series [2] deals with alpha-smooth muscle actin (α-SMA). Description: BioMAP human primary cell system mimicking myofibroblast development: alpha-smooth muscle actin level. Type of series: cell-based. The following applies: human primary lung fibroblasts stimulated with TGF-β and TNF-α, 24 hours; 2.6, 7.8, 23 and 70 μM; dose-dependent (FIG. 4). The method, then: Phenotypic profiling, including antifibrotic activity, was conducted across 12 human primary cell-based systems as part of DiscoverX's BioMAP Diversity Plus program. These systems are designed to model complex human tissue and disease biology of the vasculature, skin, lung, and inflammatory tissues. […] Cell-based activated systems were incubated with pure N-acetylhistamine for 24 to 72 hours. Protein-based biomarkers from activated cell systems were measured and compared with controls. Biomarker activities were annotated when 2 or more consecutive concentrations change in the same directions relative to vehicle controls, were outside of the significance envelope and had at least one concentration with an effect size >20% (log 10 ratio)>0.1.
In our study, N-acetylhistamine, an […] involved in histadine metabolism, caused a significant and dose-dependent decrease in alpha-smooth muscle actin (α-SMA), a protein involved in muscle contraction, cell motility, structure and integrity and a marker for activated myofibroblast phenotype, in a human cell system mimicking myofibroblast development. In this system, human primary lung fibroblasts were stimulated with TGF-β and TNF-α and incubated with the test agent, drug control, or vehicle control for 24 hours. A negative, non-stimulated system was also included.

Molecules are shown by their SMILES. Entries after “also recorded” stand apart in the source; their conditions may differ.

Regarding `CCCCCCCCCCCCC(O)C(=O)O` (stereo not drawn) [2-hydroxymyristate], the “effect on myristoylation of Gi1α” value in the series with G-protein Gi1α is “inhibits”.
`CC(=O)NCCc1c[nH]cn1` [N-acetylhistamine]: the “stability of the powder” value in series [1] is “stable at room temperature”. Also, the “change in alpha-smooth muscle actin (α-SMA) compared to internal controls” value in series [2] is recorded as “significantly decreased; also recorded: lowered”.

These data come from patent publication US10603296B1, “Compositions and methods for diagnosis and treatment of neuromuscular disorders” (United States of America as represented by the Secretary of …, priority 2019, dated 2020).
